Among the data in patent US20250042853A1, “BICYCLIC COMPOUND AND APPLICATION THEREOF” (BETTA PHARMACEUTICALS CO., LTD, priority 2021, published 2025) are IC50 values, retold here.

For test [1], the system named is 786-O-HIF2α-Luc cells. As to the kind of experiment: Luciferase assay (HIF2α reporter gene cells). In kind it is cell-based. The following applies: 18-20 h, luminescence. The protocol: The luciferase LUC gene was stably transfected into 786-0 cells (purchased from ATCC) using Lipofectamine 3000 transfection reagent (purchased from Invitrogen) to construct HIF2α reporter gene cells (786-O-HIF2α-Luc cells). The experiment was performed when 786-O-HIF2α-Luc cells were in the logarithmic growth phase, the culture medium (RPMI MEDIUM 1640, purchased from Invitrogen) was discarded, and the cells were rinsed three times with PBS; trypsin (TrypLE, purchased from Invitrogen) was added to digest the cells, and the digestion was terminated with culture medium, 10% fetal bovine serum, 1% penicillin, and streptomycin. The cells were collected by centrifugation, and washed twice with PBS to remove phenol red in the culture medium. The cells were resuspended to an appropriate concentration. The cell density and viability were measured, to ensure that the cells with a viability of at least 90% were used in the assay.
The compounds at a gradient concentration were transferred into 384 wells using Echo550 (non-contact acoustic pipetting system, purchased from Labcyte), 25 nL/well. The cells were seeded into 384-well plates, with 4500 cells/well and 25 μL of culture medium, and the final concentrations of the compounds were 10000 nM, 3333 nM, 1111 nM, 370 nM, 123 nM, 41.1 nM, 13.7 nM, 4.6 nM, 1.5 nM, and 0.5 nM, respectively. The cells were cultured for 18-20 h under conditions of 37° C. and 5% CO2. Steady-Glo™ luciferase assay system (purchased from Promega) was added to a 384-well plate, 25 μL/well. Luminescence values were detected using Envision. The inhibition rate % was calculated based on the RLU (Record Luminescence) signal value of each well, and then the IC50 values of the corresponding compounds were calculated by fitting using Graphpad 8.0.
The IC50 data of the exemplary examples are provided in Table 2, where A stands for IC50≤0.1 μM; B stands for 0.1 μM<IC50≤0.5 μM; and C stands for IC50>0.5 μM.

For test [2], the system named is VEGFA. As to the kind of experiment: VEGFA ELISA assay (IC50). In kind it is cell-based. The following applies: Homo sapiens, 786-0; 786-O cells, 24 h, VEGFA in culture supernatant by ELISA. Here is the method: 786-O cells in the logarithmic growth phase were inoculated into a 96-well plate at a cell concentration of 65,000 cells per ml of culture liquid, 180 μL per well. The compounds were diluted to the corresponding concentrations, and 20 μL of compound solutions of various concentrations were added to the corresponding cell wells, so that the final concentrations of the compounds were 1.5 nM, 4.6 nM, 13.7 nM, 41.2 nM, 123.5 nM, 370.4 nM, 1111.1 nM, 3333.3 nM, and 10000 nM, respectively. After culturing for 24 h, the cell culture supernatant was collected and the VEGFA concentration was determined using an ELISA kit (purchased from Abeam). Finally, the reaction was terminated and the absorbance value of each well was measured at a wavelength of 450 nm using an ELISA reader. The IC50 values were calculated by GraphPadPrism. CellTiter-Glo reagent was used to measure cell viability.

Structures are written as SMILES. Bounds are passed on as bounds.

On to `O=S(=O)(c1cn(-c2ccc(F)c(Cl)c2)c2c1[C@H](O)C(F)(F)CC2)C(F)(F)F` [Example 33, (S)-1-(3-chloro-4-fluorophenyl)-5,5-difluoro-3-((trifluoromethyl)sulfonyl)-4,5,6,7-tetrahydro-1H-indol-4-ol], for which the IC50 was found to be 52 nM in test [1] and 41 nM in test [2].
For the compound `N#Cc1ccc(-n2cc(S(=O)(=O)C(F)(F)F)c3c2CCC(F)(F)[C@H]3O)cc1C(F)F` [Example 35, (S)-4-(5,5-difluoro-4-hydroxyl-3-((trifluoromethyl)sulfonyl)-4,5,6,7-tetrahydro-1H-indol-1-yl)-2-(difluoromethyl)benzonitrile], the results for the IC50 in test [1] and in test [2] were 10 nM and 18 nM, respectively.
Turning to `O=S(=O)(c1cn(-c2ccc(F)c(C(F)F)c2)c2c1[C@H](O)CCC2)C(F)(F)F` [Example 52, (R)-1-(3-(difluoromethyl)-4-fluorophenyl)-3-((trifluoromethyl)sulfonyl)-4,5,6,7-tetrahydro-1H-indol-4-ol], the IC50 in test [1] amounted to 45 nM; in test [2] it was 46 nM.
In the case of `CS(=O)(=NC#N)c1cn(-c2ccc(F)c(C(F)F)c2)c2c1[C@H](O)C(F)(F)CC2` (stereo partly drawn) [Example 59, N—(((S)-1-(3-(difluoromethyl)-4-fluorophenyl)-5,5-difluoro-4-hydroxyl-4,5,6,7-tetrahydro-1H-indol-3-yl)(methyl)(oxo)-16-sulfino)cyanamide], the values for the IC50 in test [1] (class symbols) and in test [2] were 100 to 500 nM and 109 nM, respectively.
For `N#Cc1ccc(-n2cc(C(F)(F)F)c3c2CCC(F)C3O)cc1C(F)F` (stereo not shown) [Example 107, 2-(difluoromethyl)-4-(5-fluoro-4-hydroxyl-3-(trifluoromethyl)-4,5,6,7-tetrahydro-1H-indol-1-yl)benzonitrile], in that order: ≤ 100 nM and 34 nM.
